Test results as given in ChEMBL document CHEMBL1201862, “PubChem BioAssay data set” (2004).
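These data come from cells grown in 96-well plates and exposed to compound for 48 hours at five concentrations. At the GI50, growth is halved.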 Activity calls are given as the source filed them. Rule as the data show it: active = GI50 up to about 1.1 µM and inactive = higher.

Key:
Assay in all cases: growth of human tumour cells (NCI), 48 h
[1] = system: TK-10
[2] = system: SF-295
[3] = system: CCRF-CEM
[4] = system: NCI-H23
[5] = system: UACC-257
[6] = system: K562
[7] = system: Malme-3M
[8] = system: HCC 2998
[9] = system: OVCAR-8
[10] = system: EKVX
[11] = system: HCT-116
[12] = system: HOP-92
[13] = system: 786-0
[14] = system: MDA-N
[15] = system: CAKI-1
[16] = system: HT-29
[17] = system: NCI-H226
[18] = system: T47D
[19] = system: SF-539
[20] = system: SK-MEL-28
[21] = system: SR
[22] = system: MOLT-4
[23] = system: HL-60
[24] = system: M14
[25] = system: HOP-62
[26] = system: RXF 393
[27] = system: KM12
[28] = system: COLO 205
[29] = system: RPMI-8226
[30] = system: NCI/ADR-RES
[31] = system: OVCAR-4
[32] = system: SN12C
[33] = system: NCI-H460
[34] = system: SW-620
[35] = system: U-251
[36] = system: SK-MEL-2
[37] = system: BT-549
[38] = system: NCI-H522
[39] = system: HCT-15
[40] = system: OVCAR-5
[41] = system: SNB-19
[42] = system: UACC-62
[43] = system: MDA-MB-231
[44] = system: DU-145
[45] = system: SF-268
[46] = system: OVCAR-3
[47] = system: PC-3
[48] = system: SK-OV-3
[49] = system: UO-31
[50] = system: MCF7
[51] = system: SNB-75
[52] = system: SK-MEL-5
[53] = system: ACHN
[54] = system: MDA-MB-435
[55] = system: LOX IMVI
[56] = system: A549
[57] = system: Hs-578T
[58] = system: IGROV-1

COC1CC(NC(=O)C(F)(F)F)C(OC(C)=O)C(C)O1 (stereo not given)
GI50 [1]: > 100 µM (inactive)
GI50 [2]: > 100 µM (inactive)
GI50 [3]: > 100 µM (inactive)
GI50 [4]: > 100 µM (inactive)
GI50 [5]: > 100 µM (inactive)
GI50 [6]: > 100 µM (inactive)
GI50 [7]: > 100 µM (inactive)
GI50 [8]: > 100 µM (inactive)
GI50 [9]: > 100 µM (inactive)
GI50 [10]: > 100 µM (inactive)
GI50 [11]: > 100 µM (inactive)
GI50 [12]: 72.1 µM (inactive)
GI50 [13]: > 100 µM (inactive)
GI50 [14]: > 100 µM (inactive)
GI50 [15]: > 100 µM (inactive)
GI50 [16]: > 100 µM (inactive)
GI50 [17]: 66.5 µM (inactive)
GI50 [18]: > 100 µM (inactive)
GI50 [19]: > 100 µM (inactive)
GI50 [20]: > 100 µM (inactive)
GI50 [21]: > 100 µM (inactive)
GI50 [22]: > 100 µM (inactive)
GI50 [23]: > 100 µM (inactive)
GI50 [24]: > 100 µM (inactive)
GI50 [25]: > 100 µM (inactive)
GI50 [26]: > 100 µM (inactive)
GI50 [27]: > 100 µM (inactive)
GI50 [28]: > 100 µM (inactive)
GI50 [29]: > 100 µM (inactive)
GI50 [30]: > 100 µM (inactive)
GI50 [31]: > 100 µM (inactive)
GI50 [32]: > 100 µM (inactive)
GI50 [33]: > 100 µM (inactive)
GI50 [34]: > 100 µM (inactive)
GI50 [35]: > 100 µM (inactive)
GI50 [36]: > 100 µM (inactive)
GI50 [37]: > 100 µM (inactive)
GI50 [38]: > 100 µM (inactive)
GI50 [39]: > 100 µM
GI50 [40]: > 100 µM (inactive)
GI50 [41]: > 100 µM (inactive)
GI50 [42]: > 100 µM (inactive)
GI50 [43]: > 100 µM (inactive)
GI50 [44]: > 100 µM (inactive)
GI50 [45]: > 100 µM (inactive)
GI50 [46]: > 100 µM (inactive)
GI50 [47]: > 100 µM (inactive)
GI50 [48]: > 100 µM (inactive)
GI50 [49]: > 100 µM (inactive)
GI50 [50]: > 100 µM (inactive)
GI50 [51]: > 100 µM (inactive)
GI50 [52]: > 100 µM (inactive)
GI50 [53]: > 100 µM (inactive)
GI50 [54]: > 100 µM (inactive)
GI50 [55]: > 100 µM (inactive)
GI50 [56]: > 100 µM (inactive)
GI50 [57]: > 100 µM (inactive)
GI50 [58]: > 100 µM (inactive)

CCSCC(=O)N1CCc2c([nH]c3ccccc23)C1=O
GI50 [1]: > 100 µM (inactive)
GI50 [2]: > 100 µM (inactive)
GI50 [3]: > 100 µM (inactive)
GI50 [4]: > 100 µM (inactive)
GI50 [5]: 71.4 µM (inactive)
GI50 [6]: > 100 µM (inactive)
GI50 [7]: > 100 µM (inactive)
GI50 [8]: > 100 µM (inactive)
GI50 [9]: > 100 µM (inactive)
GI50 [10]: 12.6 µM (inactive)
GI50 [11]: > 100 µM (inactive)
GI50 [12]: 22.9 µM (inactive)
GI50 [13]: > 100 µM (inactive)
GI50 [14]: > 100 µM (inactive)
GI50 [15]: > 100 µM (inactive)
GI50 [16]: > 100 µM (inactive)
GI50 [17]: > 100 µM (inactive)
GI50 [18]: > 100 µM (inactive)
GI50 [19]: > 100 µM (inactive)
GI50 [20]: > 100 µM (inactive)
GI50 [21]: > 100 µM (inactive)
GI50 [22]: > 100 µM (inactive)
GI50 [23]: > 100 µM (inactive)
GI50 [24]: > 100 µM (inactive)
GI50 [25]: > 100 µM (inactive)
GI50 [26]: > 100 µM (inactive)
GI50 [27]: > 100 µM (inactive)
GI50 [28]: > 100 µM (inactive)
GI50 [30]: > 100 µM (inactive)
GI50 [31]: > 100 µM (inactive)
GI50 [32]: > 100 µM (inactive)
GI50 [33]: > 100 µM (inactive)
GI50 [34]: > 100 µM (inactive)
GI50 [35]: > 100 µM (inactive)
GI50 [36]: > 100 µM (inactive)
GI50 [37]: > 100 µM (inactive)
GI50 [38]: 64.4 µM (inactive)
GI50 [39]: > 100 µM
GI50 [40]: 91 µM (inactive)
GI50 [41]: > 100 µM (inactive)
GI50 [42]: 97.5 µM (inactive)
GI50 [43]: > 100 µM (inactive)
GI50 [44]: > 100 µM (inactive)
GI50 [45]: > 100 µM (inactive)
GI50 [46]: > 100 µM (inactive)
GI50 [47]: > 100 µM (inactive)
GI50 [48]: > 100 µM (inactive)
GI50 [49]: > 100 µM (inactive)
GI50 [50]: 96.6 µM (inactive)
GI50 [51]: 78 µM (inactive)
GI50 [52]: > 100 µM (inactive)
GI50 [53]: > 100 µM (inactive)
GI50 [54]: > 100 µM (inactive)
GI50 [55]: > 100 µM (inactive)
GI50 [56]: > 100 µM (inactive)
GI50 [57]: 23.2 µM (inactive)
GI50 [58]: > 100 µM (inactive)
